Tests used:
[1] = target: T1, TauF (BwTauF, sulfoacetaldehyde reductase) (Bilophila wadsworthia, UniProt E5Y946); test: NADH oxidation at […] nm; format: biochemical; conditions: 5 mM sulfoacetaldehyde (introduced as bisulfite adduct), 0.5 mM NADH, 0.1 M Tris pH 7.5, 0.1 M KCl
T1 construct: gene sarD; codon-optimised, His6-TEV (HT) vector, E. coli
T1 sequence (E5Y946 1-387): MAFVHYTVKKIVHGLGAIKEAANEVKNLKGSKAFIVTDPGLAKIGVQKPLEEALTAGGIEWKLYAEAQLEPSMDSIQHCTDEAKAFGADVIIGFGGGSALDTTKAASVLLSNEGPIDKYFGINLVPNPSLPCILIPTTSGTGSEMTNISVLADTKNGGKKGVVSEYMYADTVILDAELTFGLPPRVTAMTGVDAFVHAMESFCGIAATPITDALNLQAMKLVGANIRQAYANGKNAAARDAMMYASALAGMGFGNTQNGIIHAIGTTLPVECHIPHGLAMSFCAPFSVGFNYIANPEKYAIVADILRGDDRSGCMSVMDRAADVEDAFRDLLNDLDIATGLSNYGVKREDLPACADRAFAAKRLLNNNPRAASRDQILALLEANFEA

[2] = target: T2, DpIseK (substrate-binding subunit of the IseG-associated TRAP transporter) (Desulfovibrio piger, UniProt A0A1K1LFE7); test: isothermal titration calorimetry
T2 construct: gene DESPIGER_1592; soluble periplasmic subunit, codon-optimised, expressed as His6-MBP-TEV fusion; MBP tag cleaved and removed before ITC
T2 sequence (A0A1K1LFE7 24-332): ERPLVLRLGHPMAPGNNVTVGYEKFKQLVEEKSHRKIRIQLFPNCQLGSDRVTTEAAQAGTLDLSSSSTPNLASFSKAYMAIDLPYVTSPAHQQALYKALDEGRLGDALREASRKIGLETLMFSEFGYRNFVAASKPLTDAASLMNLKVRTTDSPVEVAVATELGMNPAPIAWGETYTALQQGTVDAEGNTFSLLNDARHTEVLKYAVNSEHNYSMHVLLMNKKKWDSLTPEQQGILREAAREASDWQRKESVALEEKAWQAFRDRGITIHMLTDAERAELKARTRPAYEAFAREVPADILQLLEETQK

[3] = target: IseG (−23 a.a.), isethionate sulfo-lyase from Desulfovibrio vulgaris Hildenborough with an N-terminal 23-a.a. truncation (Desulfovibrio vulgaris Hildenborough) (UniProt Q727N1); test: SEC; 2.5 mg/mL IseG (−23 a.a.), 2 mL on a Superdex 200 column (300 mL), buffer D (10 mM HEPES/KOH pH 7.4, 250 mM KCl, 10 mM BME), 3 mL/min; mass from elution volume against molecular weight markers (observed 196 kDa, monomer calculated 91.3 kDa)
[4] = substrate: O=S(=O)(O)CCO; test: purified protein; format: biochemical, Nitratidesulfovibrio vulgaris; conditions: IseG activated by IseH, SAM and Ti(III) citrate; anaerobic, room temperature, 250 nM IseG

NC(=O)C1=CN([C@@H]2O[C@H](COP(=O)(O)OP(=O)(O)OC[C@H]3O[C@@H](n4cnc5c(N)ncnc54)[C@H](O)[C@@H]3O)[C@@H](O)[C@H]2O)C=CC1 [NADH]
NADH oxidation at 340 nm [1]: demonstrates that BwTauF is a sulfoacetaldehyde reductase

O=S(=O)(O)CCO [isethionate]
Kd [2]: 500 nM

O=CCS(=O)(=O)O [sulfoacetaldehyde]
NADH oxidation at 340 nm [1]: TauF, catalyzed NADH-dependent reduction of sulfoacetaldehyde

IseG (−23 a.a.), isethionate sulfo-lyase from Desulfovibrio vulgaris Hildenborough with an N-terminal 23-a.a. truncation (from UniProt Q727N1 24-828) (enzyme)
stoichiometry N [3]: 2

B1: IseG (GUF, isethionate sulfo-lyase) (Nitratidesulfovibrio vulgaris str. Hildenborough) (protein)
chain: MQCCNQLSPHEQRLQDKIEGKVDRYRATHERVFTILESFDNTRPRIDVERAKYFTESMKATEGQPLPLRWAKALMHIAENMTVYIDDHQLICGRAGYQGRYGVLYPELDGDFLGTAIEDLPNRAESPFAITPEDARVVVEEIAPFWKGKTYHEALNLALPADVHKLTYDDPQGLMSRFIVNETSSFRSSIQWVHDYEKVLKRGFRSIKEEALEKIAALDPMSPCDNVEKRPFLEAIVIVCDAIILWAKRHAKLAAELAAKETDPTRKRELETMAEICAWVPENPARTFHEAVQAQWFTQVFSRIEQKTGTIVSNGRMDQYFWPFYEKDLAEGRITEDSALELLECMWVGMAQYVDLYISPTGGAFNEGYAHWEAVTIGGQTPEGRDATNDLTYLFLKSKREFPLHYPDLAARIHSRSPERYLWEVAETIKDGSGFPKLINDEEVVPLYVSKGATFAEALDYAVSGCTEARMPNRDTYTSGGAYINFAAALEMVLYNGKMLKYGDTDLGAHTGDPCEFKTWEEFWNAYVTQHHLFLKTAFVQQHIINNLRARHFAQPMGSSLHDLCMKHCLDLHTPQIPEGINLGYFEYMGFGTVVDSLSAIKKLVFEDKKLTMGELIEALKCNFEGKEDIQQLLKSAPCYGNNDDYADSIARDIDALSVKYGRRYSPELGMHNDVRYVPFTSHVPFGRVVSATPNGRKAWSALSDGSSASHGADVNGPTAILQSNFNSKNYGMRDRAARMLNIKFTPKCVEGEEGSQKLVSFIRTFCDLKLWHVQFNVINKETLLAAQRDPEKYRNLIVRIAGYSAYFVDLSPDLQNDLIARTGHDVM
notes: pET-28a(+)-His6-IseG, codon-optimised, full length, His tag kept, E. coli BL21(DE3); dimer; glycyl radical installed by IseH/SAM/Ti(III) citrate
Km [4]: 44.8 ± 3.5 mM | kcat [4]: 91.6 ± 3.3 s⁻¹

Reference: paper PMC6453916, “Radical-mediated C-S bond cleavage in C2 sulfonate degradation by anaerobic bacteria” (Nature Communications, 2019)
